Measurements taken from patent publication US7507727B2, “Substituted quinobenzoxazine analogs and methods of using thereof” (Cylene Pharmaceuticals, Inc., priority 2003, dated 2009).

What was measured:
CYP2C9 = CYP2C9 (Homo sapiens, UniProt P11712); experiment: Cytochrome P450 inhibition assay; type: in vitro ADME
Experimental: (§1) Cytochrome P450 (CYP450) Inhibition Assay. […] The reactions were initiated by adding 100 μL of a pre-warmed enzyme/substrate solution to the reaction tubes. A zero time-point control reaction was prepared by adding 50 μL of acetonitrile to 100 μL of cofactor solution to inactivate the enzymes, then adding 100 μL of enzyme/substrate solution. A control reaction with no inhibitor was also prepared. After a suitable incubation at 37° C., the reactions were terminated by the addition of 50 μL of acetonitrile. The reactions were analyzed for the metabolite forms of the probe substrate using LC/MS/MS. Each assay was performed in duplicate.

CYP2C19 = CYP2C19 (Homo sapiens, UniProt P33261); experiment: Cytochrome P450 inhibition assay; type: in vitro ADME
Experimental: as §1

CYP2D6 = CYP2D6 (Homo sapiens, UniProt P10635); experiment: Cytochrome P450 inhibition assay; type: in vitro ADME
Experimental: as §1

CYP1A2 = CYP1A2 (Homo sapiens, UniProt P05177); experiment: Cytochrome P450 inhibition assay; type: in vitro ADME
Experimental: as §1

CYP3A4 = CYP3A4 (Homo sapiens, UniProt P08684); experiment: Cytochrome P450 inhibition assay; type: in vitro ADME
Experimental: as §1

[1] = Subacute study of intravenously administered CX-3543 in dogs (safety and tolerance); type: in vivo
Experimental: This study determines the safety and tolerance of CX-3543 at three dose levels administered intravenously once daily to beagle dogs for five consecutive days. Safety parameters were monitored through observation, clinical pathology, and microscopic histopathology assessments. Selected animals also underwent blood sample collection for pharmacokinetic/toxicokinetic evaluation. All animals were also assessed with ECG evaluations to detect heart rhythm and/or conduction abnormalities.
The study was conducted using three (3) test article and one (1) control article group. The control article was the solution (5% dextrose in water) used to dilute the test article prior to administration and was administered at the same volume as the high dose. The test article dosage levels for this study were approximately 12, 3.8, and 1.2 mg/kg. Test and control articles were administered once by intravenous (IV) infusion over approximately a one hour period on five consecutive days. Blood samples for test article blood level analysis was taken as follows (i.e., pk/tk sampling): approximately 1 mL of blood was taken from three male and three female dogs in the low dose group at approximately 20 minutes and 40 minutes from the start of the infusion, and then at the end of infusion (Time 0) and at 5, 10, 15, and 30 minutes, and 1, 2, 4, 8, 12, and 24 hours from the end of the infusion after the first and fifth doses. Also, prior to and immediately after Dose 1 and after Dose 5 for all animals, and for recovery animals prior to necropsy, approximately 5-10 second ECG tracings in a lead II configuration were obtained. Animals were terminated one (1) or 15 days after the last dose. […]
Clinical Pathology: After overnight fasting and prior to the first dose (baseline; all animals) and then prior to each necropsy, blood samples are taken for hematology and clinical chemistry. For hematology assays, blood collected at baseline and prior to necropsy (fasted) are analyzed for erythrocyte count, hematocrit, MCH, leukocyte count, differential WC, MCHC, hemoglobin, MCV, platelet count, PT, and APTT. […]

HCT-116 cells = experiment: DNA cell cycle analysis; type: cell-based; details: serum-starved HCT-116 cells, 24 hr, 1 to 5 um
Experimental: The following protocol was followed in this example. Seed 1.5-2.0×10^6 cells/10 cm dish (seed one extra dish for unstained cells). Incubate cells in 37° C. humidified 5% CO2 incubator for 24 hours. For synchronizing cells in a low growth state to make cells quiescent, remove media and rinse once with serum-free media, add 10 ml of serum-free media to each dish. Incubate the cells for 24 hr in a 37° C. humidified 5% CO2 incubator. Remove media and add treatment (diluted in serum contained media, 10 ml): 1-5 μM CX-3543 plus control. Incubate the cells for 24 hr in a 37° C. humidified 5% CO2 incubator.
To trypsinize/isolate cells, remove treatment. Add 3 ml trypsin/EDTA solution. Keep floating cells and combine with attached cells. Incubate for 5 min in a 37° C. humidified 5% CO2 incubator. Add 3 ml media (containing FBS) to wells and pipette into centrifuge tube. Centrifuge at 1000 rpm for 5 minutes. Decant supernatant and re-suspend pellet in 2-3 ml PBS. Count cells and wash cells once by putting 2×10^6 cells/tube, adding 2 ml PBS and centrifuging at 1000 rpm for 5 minutes. Re-suspend pelleted cells in 0.3 ml cold PBS.
To fix cells, gently add 0.7 ml ice cold 70% ethanol drop wise to tube containing 0.3 ml of cell suspension in PBS while vortexing. Leave on Ice for one hour (or up to a few days at 4C). Centrifuge at 1000 rpm for 5 minutes. Wash one time with cold PBS (1-2 ml). […]

Chain of CYP3A4 (P08684 whole entry): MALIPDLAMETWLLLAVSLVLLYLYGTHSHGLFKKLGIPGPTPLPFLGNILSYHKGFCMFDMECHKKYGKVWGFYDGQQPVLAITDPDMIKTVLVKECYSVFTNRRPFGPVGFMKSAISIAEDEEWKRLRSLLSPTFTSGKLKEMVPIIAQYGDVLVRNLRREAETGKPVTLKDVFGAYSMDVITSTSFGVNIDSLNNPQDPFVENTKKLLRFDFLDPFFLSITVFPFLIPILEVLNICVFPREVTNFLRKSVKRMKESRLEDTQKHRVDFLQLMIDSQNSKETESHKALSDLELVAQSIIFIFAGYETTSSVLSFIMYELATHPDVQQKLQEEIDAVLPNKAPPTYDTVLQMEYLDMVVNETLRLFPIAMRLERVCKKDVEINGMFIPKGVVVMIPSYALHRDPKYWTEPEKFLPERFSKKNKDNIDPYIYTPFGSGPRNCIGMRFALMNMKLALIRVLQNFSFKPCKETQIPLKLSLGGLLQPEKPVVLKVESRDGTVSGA
Chain of CYP2D6 (P10635 whole entry): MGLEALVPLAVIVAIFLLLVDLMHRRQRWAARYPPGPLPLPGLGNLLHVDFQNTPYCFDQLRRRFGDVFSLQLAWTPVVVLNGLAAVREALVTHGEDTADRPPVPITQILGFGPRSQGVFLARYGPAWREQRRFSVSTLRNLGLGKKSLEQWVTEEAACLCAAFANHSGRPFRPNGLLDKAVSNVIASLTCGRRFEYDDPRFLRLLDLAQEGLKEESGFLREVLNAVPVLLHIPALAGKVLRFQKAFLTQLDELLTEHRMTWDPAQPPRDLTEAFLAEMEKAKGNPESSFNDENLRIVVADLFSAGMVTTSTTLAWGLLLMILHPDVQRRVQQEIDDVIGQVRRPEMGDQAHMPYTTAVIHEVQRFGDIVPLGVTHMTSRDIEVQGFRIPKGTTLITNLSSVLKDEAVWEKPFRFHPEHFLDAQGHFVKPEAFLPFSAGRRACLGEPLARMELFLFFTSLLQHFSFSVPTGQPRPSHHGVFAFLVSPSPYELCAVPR
Chain of CYP2C9 (P11712 whole entry): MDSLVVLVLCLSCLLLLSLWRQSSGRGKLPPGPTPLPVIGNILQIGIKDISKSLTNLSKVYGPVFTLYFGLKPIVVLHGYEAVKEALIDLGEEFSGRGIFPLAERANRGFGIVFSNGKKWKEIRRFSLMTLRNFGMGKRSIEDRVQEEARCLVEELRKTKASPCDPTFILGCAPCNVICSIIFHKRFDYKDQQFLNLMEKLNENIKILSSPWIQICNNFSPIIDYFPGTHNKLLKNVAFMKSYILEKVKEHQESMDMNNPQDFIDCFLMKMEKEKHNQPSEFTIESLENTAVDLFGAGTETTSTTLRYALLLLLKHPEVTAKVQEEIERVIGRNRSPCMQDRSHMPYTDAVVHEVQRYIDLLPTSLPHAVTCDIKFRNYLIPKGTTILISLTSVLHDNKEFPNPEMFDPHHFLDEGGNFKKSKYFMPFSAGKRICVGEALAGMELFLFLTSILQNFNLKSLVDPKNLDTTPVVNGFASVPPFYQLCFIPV
Chain of CYP2C19 (P33261 whole entry): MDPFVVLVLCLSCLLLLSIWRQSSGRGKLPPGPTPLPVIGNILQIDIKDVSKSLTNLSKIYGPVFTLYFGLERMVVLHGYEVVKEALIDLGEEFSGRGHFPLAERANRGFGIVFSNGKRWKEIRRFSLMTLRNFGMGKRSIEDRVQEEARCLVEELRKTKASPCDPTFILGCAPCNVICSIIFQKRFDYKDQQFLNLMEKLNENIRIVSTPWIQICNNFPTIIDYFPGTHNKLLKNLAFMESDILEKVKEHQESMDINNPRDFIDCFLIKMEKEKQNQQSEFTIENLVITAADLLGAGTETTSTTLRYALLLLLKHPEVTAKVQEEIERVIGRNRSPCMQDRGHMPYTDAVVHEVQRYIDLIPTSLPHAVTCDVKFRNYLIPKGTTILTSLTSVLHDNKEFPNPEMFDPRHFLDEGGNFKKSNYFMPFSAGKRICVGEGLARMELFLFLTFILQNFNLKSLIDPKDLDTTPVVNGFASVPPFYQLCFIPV
Chain of CYP1A2 (P05177 whole entry): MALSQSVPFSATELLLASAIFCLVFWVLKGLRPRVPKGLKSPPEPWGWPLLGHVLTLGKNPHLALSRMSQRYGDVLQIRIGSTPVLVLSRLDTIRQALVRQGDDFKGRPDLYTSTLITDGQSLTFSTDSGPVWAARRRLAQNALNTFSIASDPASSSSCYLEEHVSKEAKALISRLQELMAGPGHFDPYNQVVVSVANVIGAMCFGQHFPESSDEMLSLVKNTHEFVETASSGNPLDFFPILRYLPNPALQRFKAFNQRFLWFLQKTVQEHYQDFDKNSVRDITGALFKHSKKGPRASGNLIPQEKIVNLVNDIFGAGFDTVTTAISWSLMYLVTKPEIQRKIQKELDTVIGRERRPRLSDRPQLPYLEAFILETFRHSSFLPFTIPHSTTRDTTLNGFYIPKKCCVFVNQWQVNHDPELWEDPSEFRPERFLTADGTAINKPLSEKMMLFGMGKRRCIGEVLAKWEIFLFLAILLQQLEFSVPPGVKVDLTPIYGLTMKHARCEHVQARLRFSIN

CN1CCCC1CCNC(=O)c1cn2c3c(c(N4CCC(c5cnccn5)C4)c(F)cc3c1=O)Oc1cc3ccccc3cc1-2 (stereo not shown) [CX-3543]
inhibition of CYP2C9 (CYP2C9): No significant inhibition
IC50 (CYP2C9; isoform 2C9, substrate Diclofenac): > 10 µM
inhibition of CYP2C19 (CYP2C19): No significant inhibition
inhibition of CYP2D6 (CYP2D6): No significant inhibition
IC50 (CYP2D6; isoform 2D6, substrate Dextromethorphan): > 25 µM
inhibition of CYP1A2 (CYP1A2): No significant inhibition
range in which only minor and partial inhibition of CYP3A4 was evident (CYP3A4): 1 to 3 µM
IC50 (CYP3A4; isoform 3A4, substrate Midazolam): 1400 nM
IC50 (CYP3A4; isoform 3A4, substrate Testosterone): 3300 nM
mortality ([1]; dog, in vivo): no mortality
tolerance ([1]; dogs, five consecutive daily doses at 12, 3.8 or 1.2 mg/kg, IV one-hour infusion, except injection-site inflammation and necrosis): toxicologically well tolerated
ECG monitoring ([1]; dogs, pre and post doses 1 and 5): No abnormalities were detected
effect on the distribution of cells throughout the cell cycle (HCT-116 cells): no observable effect
